Each compound was assayed against T1, human TLR7 (Homo sapiens, UniProt Q9NYK1) (assay: HEK293-Blue hTLR7 Reporter Assay (QUANTI-BLUE, SEAP readout)). Details: HEK-Blue-hTLR7 cells, 24 hrs treatment, Table 1, B1-B232.
T1 construct: host or cells: HEK293 (HEK-Blue hTLR7)
T1 sequence (Q9NYK1 27-1049): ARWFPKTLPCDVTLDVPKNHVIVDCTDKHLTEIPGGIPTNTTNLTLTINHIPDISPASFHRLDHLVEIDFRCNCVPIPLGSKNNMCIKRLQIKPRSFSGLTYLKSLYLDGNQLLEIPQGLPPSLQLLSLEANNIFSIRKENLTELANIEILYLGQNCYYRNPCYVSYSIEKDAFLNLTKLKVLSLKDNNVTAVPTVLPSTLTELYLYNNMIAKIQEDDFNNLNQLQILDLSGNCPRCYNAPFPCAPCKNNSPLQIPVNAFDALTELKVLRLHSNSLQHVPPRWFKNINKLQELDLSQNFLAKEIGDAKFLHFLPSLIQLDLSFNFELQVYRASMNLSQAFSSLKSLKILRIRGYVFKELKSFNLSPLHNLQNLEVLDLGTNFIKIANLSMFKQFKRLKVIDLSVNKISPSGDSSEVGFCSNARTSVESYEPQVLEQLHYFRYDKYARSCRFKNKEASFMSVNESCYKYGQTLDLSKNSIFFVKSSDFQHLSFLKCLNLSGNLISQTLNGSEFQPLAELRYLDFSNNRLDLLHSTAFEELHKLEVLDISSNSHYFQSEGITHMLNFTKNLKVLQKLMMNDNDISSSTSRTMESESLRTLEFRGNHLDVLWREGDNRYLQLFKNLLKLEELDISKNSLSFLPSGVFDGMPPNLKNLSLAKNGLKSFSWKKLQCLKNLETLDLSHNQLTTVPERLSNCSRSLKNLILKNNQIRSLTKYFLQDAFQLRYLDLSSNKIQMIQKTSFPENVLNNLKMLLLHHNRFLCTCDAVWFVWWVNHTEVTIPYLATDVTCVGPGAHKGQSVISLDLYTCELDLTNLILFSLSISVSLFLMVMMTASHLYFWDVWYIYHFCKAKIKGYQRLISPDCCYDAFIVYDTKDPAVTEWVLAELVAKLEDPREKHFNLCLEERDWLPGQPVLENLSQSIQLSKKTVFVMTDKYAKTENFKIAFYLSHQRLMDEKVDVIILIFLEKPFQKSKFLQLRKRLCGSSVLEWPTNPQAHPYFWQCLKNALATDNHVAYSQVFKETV
Assay type: cell-based
Experimental: HEK293-Blue hTLR7 Reporter Assay: HEK-Blue-hTLR7 cell line (Invivogen, Cat. No. hkb-htlr7) was designed so that the expression of the secreted embryonic alkaline phosphatase (SEAP) was induced by activating NF-κ and AP-1 via stimulating human TLR7 with TLR7 agonists. HEK-Blue-hTLR7 cells were seeded at a density of 4×10^4 cells/well in a volume of 180 μL in a 96-well plate in DMEM (Cat. No. 11965-092) supplemented with 10% (v/v) heat-inactivated fetal bovine serum (FBS) (Gibco, 10099-1441), 100 U/ml penicillin and 100 μg/ml streptomycin (Gibco, 15140122) containing 50 U/mL penicillin, […] and 10% (v/v) heat-inactivated fetal bovine serum. The cells were settled for 5 hrs, then treated with increasing amounts of tested compounds at 37° C. for 24 hrs. Then 20 μL of the supernatant from each well was incubated with 180 μL Quanti-blue substrate solution at 37° C. for 10-30 mins before the activity of the SEAP was determined at 620-655 nm using a spectrophotometer. The EC50 value for each compound was calculated with GraphPad Prism software using the sigmoidal dose-response function.

SMILES | EC50
CCCCOc1nc(N)c2ncc(Cc3cnc(N4CCC(N(C)C)CC4)c(C)c3)n2n1 [Compound B78, 2-butoxy-7-((6-(4-(dimethylamino)piperidin-1-yl)-5-methylpyridin-3-yl)methyl)imidazo[2,1-f][1,2,4]triazin-4-amine] | 47 nM
CCC[C@H](C)Oc1nc(N)c2ncc(Cc3cnc(N4CCN(CCO)CC4)c(C)c3)n2n1 [Compound B199, (S)-2-(4-(5-((4-amino-2-(pentan-2-yloxy)imidazo[2,1-f][1,2,4]triazin-7-yl)methyl)-3-methylpyridin-2-yl)piperazin-1-yl)ethan-1-ol] | 8.1 nM
CCCCOc1nc(N)c2ncc(Cc3cnc(N4CCN(S(=O)(=O)CCC)CC4)c(C)c3)n2n1 [Compound B89, 2-butoxy-7-((5-methyl-6-(4-(propylsulfonyl)piperazin-1-yl)pyridin-3-yl)methyl)imidazo[2,1-f][1,2,4]triazin-4-amine] | > 10000 nM
CCC(CC)Oc1nc(N)c2ncc(Cc3cnc(N4CCN(C(=O)CN(C)C)CC4)c(C)c3)n2n1 [Compound B200, 1-(4-(5-((4-amino-2-(pentan-3-yloxy)imidazo[2,1-f][1,2,4]triazin-7-yl)methyl)-3-methylpyridin-2-yl)piperazin-1-yl)-2-(dimethylamino)ethan-1-one] | 25 nM
CCCCOc1nc(N)c2ncc(Cc3cnc(N4CCN(CCNC)CC4)c(C)c3)n2n1 [Compound B75, 2-butoxy-7-((5-methyl-6-(4-(2-(methylamino)ethyl)piperazin-1-yl)pyridin-3-yl)methyl)imidazo[2,1-f][1,2,4]triazin-4-amine] | 121 nM
CCCCOc1nc(N)c2ncc(Cc3ccc(N4CCN[C@H](C)C4)c(C)c3)n2n1 [Compound B98, (R)-2-butoxy-7-(3-methyl-4-(3-methylpiperazin-1-yl)benzyl)imidazo[2,1-f][1,2,4]triazin-4-amine] | 1130 nM
CCCC(Nc1nc(N)c2ncc(Cc3cnc(N4CCNCC4)c(C)c3)n2n1)C(F)(F)F (stereo not shown) [Compound B227, 7-((5-methyl-6-(piperazin-1-yl)pyridin-3-yl)methyl)-N2-(1,1,1-trifluoropentan-2-yl)imidazo[2,1-f][1,2,4]triazine-2,4-diamine] | 25 nM
CCC[C@H](C)Oc1nc(N)c2ncc(Cc3cnc(N4CCC(CNC)CC4)c(C)c3)n2n1 (single isomer, unassigned) [Compound B221] | 3.9 nM
CCCC(CCC)Nc1nc(N)c2ncc(Cc3cnc(N4CCC(N(C)C)CC4)c(C)c3)n2n1 [Compound B184, 7-((6-(4-(dimethylamino)piperidin-1-yl)-5-methylpyridin-3-yl)methyl)-N2-(heptan-4-yl)imidazo[2,1-f][1,2,4]triazine-2,4-diamine] | 3.6 nM
CCC(C)COc1nc(N)c2ncc(Cc3cnc(N4CCNCC4)c(C)c3)n2n1 (stereo not shown) [Compound B113, 7-((5-methyl-6-(piperazin-1-yl)pyridin-3-yl)methyl)-2-(2-methylbutoxy)imidazo[2,1-f][1,2,4]triazin-4-amine] | 447 nM
CCCCOc1nc(N)c2ncc(Cc3cnc(N4CCN(C(=O)CCCN(C)C)CC4)c(C)c3)n2n1 [Compound B49, 1-(4-(5-((4-amino-2-butoxyimidazo[2,1-f][1,2,4]triazin-7-yl)methyl)-3-methylpyridin-2-yl)piperazin-1-yl)-4-(dimethylamino)butan-1-one] | 124 nM
CCCCOc1nc(N)c2ncc(Cc3cnc(N4CCC(N(C)C)C4)c(C)c3)n2n1 (stereo not shown) [Compound B87, 2-butoxy-7-((6-(3-(dimethylamino)pyrrolidin-1-yl)-5-methylpyridin-3-yl)methyl)imidazo[2,1-f][1,2,4]triazin-4-amine] | 435 nM
CCCCOc1nc(N)c2ncc(Cc3ccc(C4CCNCC4)cc3)n2n1 [Compound B3, 2-butoxy-7-(4-(piperidin-4-yl)benzyl)imidazo[2,1-f][1,2,4]triazin-4-amine] | 327 nM
CCCCOc1nc(N)c2ncc(Cc3ccc(N4CCNCC4)c(OC)c3)n2n1 [Compound B45, 2-butoxy-7-(3-methoxy-4-(piperazin-1-yl)benzyl)imidazo[2,1-f][1,2,4]triazin-4-amine] | 418 nM
CCC[C@H](C)Nc1nc(N)c2ncc(Cc3cnc(N4CCNCC4)c(C)c3)n2n1 (single isomer, unassigned) [Compound B148] | 6.5 nM
CCCCOc1nc(N)c2ncc(Cc3cnc(N4CCCCC4)c(C)c3)n2n1 [Compound B34, 2-butoxy-7-((5-methyl-6-(piperidin-1-yl)pyridin-3-yl)methyl)imidazo[2,1-f][1,2,4]triazin-4-amine] | > 10000 nM
CCC[C@@H](C)Oc1nc(N)c2ncc(Cc3cnc(N4CCNCC4)c(C)c3)n2n1 [Compound B117, (R)-7-((5-methyl-6-(piperazin-1-yl)pyridin-3-yl)methyl)-2-(pentan-2-yloxy)imidazo[2,1-f][1,2,4]triazin-4-amine] | 62 nM
CCCCOc1nc(N)c2ncc(Cc3ccc(N4CCNCC4)c(CC)c3)n2n1 [Compound B92, 2-butoxy-7-(3-ethyl-4-(piperazin-1-yl)benzyl)imidazo[2,1-f][1,2,4]triazin-4-amine] | 464 nM
CCC[C@@H](CCO)Nc1nc(N)c2ncc(Cc3cnc(N4CCC(CNC)CC4)c(C)c3)n2n1 [Compound B228, (S)-3-((4-amino-7-((5-methyl-6-(4-((methylamino)methyl)piperidin-1-yl)pyridin-3-yl)methyl)imidazo[2,1-f][1,2,4]triazin-2-yl)amino)hexan-1-ol] | 37 nM
CCCCOc1nc(N)c2ncc(Cc3cnc(N4CCNCC4)c(C)c3)n2n1 [Compound B8, 2-butoxy-7-((5-methyl-6-(piperazin-1-yl)pyridin-3-yl)methyl)imidazo[2,1-f][1,2,4]triazin-4-amine] | 136 nM
CCCCOc1nc(N)c2ncc(Cc3cnc(N4CCN(C(=O)CNC)CC4)c(C)c3)n2n1 [Compound B32, 1-(4-(5-((4-amino-2-butoxyimidazo[2,1-f][1,2,4]triazin-7-yl)methyl)-3-methylpyridin-2-yl)piperazin-1-yl)-2-(methylamino)ethan-1-one] | 66 nM
CCCCOc1nc(N)c2ncc(Cc3ccc(C4CCNCC4)nc3)n2n1 [Compound B19, 2-butoxy-7-((6-(piperidin-4-yl)pyridin-3-yl)methyl)imidazo[2,1-f][1,2,4]triazin-4-amine] | 227 nM
CCCCOc1nc(N)c2ncc(Cc3cnc(N4CCN(C(=O)CCCCN(C)C)CC4)c(C)c3)n2n1 [Compound B50, 1-(4-(5-((4-amino-2-butoxyimidazo[2,1-f][1,2,4]triazin-7-yl)methyl)-3-methylpyridin-2-yl)piperazin-1-yl)-5-(dimethylamino)pentan-1-one] | 151 nM
CCCCOc1nc(N)c2ncc(Cc3cnc(N4CCNC[C@H]4C)c(C)c3)n2n1 [Compound B74, (R)-2-butoxy-7-((5-methyl-6-(2-methylpiperazin-1-yl)pyridin-3-yl)methyl)imidazo[2,1-f][1,2,4]triazin-4-amine] | 73 nM
CCCCOc1nc(N)c2ncc(Cc3cnc(N4CCN(C(=O)CN(C)C(C)=O)CC4)c(C)c3)n2n1 [Compound B58, N-(2-(4-(5-((4-amino-2-butoxyimidazo[2,1-f][1,2,4]triazin-7-yl)methyl)-3-methylpyridin-2-yl)piperazin-1-yl)-2-oxoethyl)-N-methylacetamide] | 3250 nM

— patent US12612407B2, “Imidazo[2,1-f][1,2,4]triazin-4-amine derivatives as TLR7 agonist” (BEIGENE, LTD., priority 2020, dated 2026)
